Measurements as given in ChEMBL document CHEMBL1177737, “Bioactive 1,4-dihydroxy-5-phenyl-2-pyridinone alkaloids from Septoria pistaciarum” (J Nat Prod, 2010).
In brackets after ≈: the same amount, converted by molar mass. Activity calls are given as the source filed them. No cut-off for these calls is given here.

Legend:
Vero [1] = experiment: Cytotoxicity against african green monkey Vero cell after 48 hrs by Neutral Red dye; type: cell-based, Chlorocebus sabaeus
Candida albicans [2] = experiment: Antimicrobial activity against Candida albicans ATCC 90028 by CLSI method; type: functional, organism-based
Aspergillus fumigatus [3] = experiment: Antimicrobial activity against Aspergillus fumigatus ATCC 90906 by CLSI method; type: functional, organism-based
Plasmodium falciparum [4] = experiment: Antiplasmodial activity against chloroquine-resistant Plasmodium falciparum W2 after 72 hrs by LDH assay; type: functional, organism-based
Plasmodium falciparum [5] = experiment: Antiplasmodial activity against chloroquine-sensitive Plasmodium falciparum D6 after 72 hrs by LDH assay; type: functional, organism-based
KB [6] = experiment: Cytotoxicity against human KB cells after 48 hrs by Neutral Red dye; type: functional, cell-based
SK-OV-3 [7] = experiment: Cytotoxicity against human SKOV3 cells after 48 hrs by Neutral Red dye; type: functional, cell-based; conditions: SK-OV-3, 48 h
BT-549 [8] = experiment: Cytotoxicity against human BT549 cells after 48 hrs by Neutral Red dye; type: functional, cell-based; conditions: BT-549, 48 h
Staphylococcus aureus [9] = experiment: Antimicrobial activity against Staphylococcus aureus ATCC 29213 at 20 ug/ml by CLSI method; type: functional, organism-based
[10] = Selectivity index, ratio of IC50 for african green monkey (Cercopithecus aethiops) Vero cells to IC50 for chloroquine-resistant Plasmodium falciparum W2; type: toxicity, cell-based; conditions: read-out: Ratio IC50
Staphylococcus aureus [11] = experiment: Antimicrobial activity against Staphylococcus aureus ATCC 29213 by CLSI method; type: functional, organism-based
[12] = Cytotoxicity against pig LLC-PK11 cells after 48 hrs by Neutral Red dye; type: cell-based; conditions: Sus scrofa, LLC-PK11, 48 h
[13] = Selectivity index, ratio of IC50 for african green monkey (Cercopithecus aethiops) Vero cells to IC50 for chloroquine-sensitive Plasmodium falciparum D6; type: toxicity, cell-based; conditions: read-out: Ratio IC50
SK-MEL [14] = experiment: Cytotoxicity against human SK-MEL cells after 48 hrs by Neutral Red dye; type: functional, cell-based
Staphylococcus aureus [15] = experiment: Antimicrobial activity against methicillin-resistant Staphylococcus aureus ATCC 33591 at 20 ug/ml by CLSI method; type: functional, organism-based
[16] = Cytotoxicity against pig LLC-PK11 cells at 10 ug/ml after 48 hrs by Neutral Red dye; type: cell-based, Sus scrofa
Vero [17] = experiment: Cytotoxicity against african green monkey Vero cell at 10 ug/ml after 48 hrs by Neutral Red dye; type: cell-based, Chlorocebus sabaeus
BT-549 [18] = experiment: Cytotoxicity against human BT549 cells at 10 ug/ml after 48 hrs by Neutral Red dye; type: functional, cell-based
SK-OV-3 [19] = experiment: Cytotoxicity against human SKOV3 cells at 10 ug/ml after 48 hrs by Neutral Red dye; type: functional, cell-based
Staphylococcus aureus [20] = experiment: Antimicrobial activity against methicillin-resistant Staphylococcus aureus ATCC 33591 by CLSI method; type: functional, organism-based
KB [21] = experiment: Cytotoxicity against human KB cells at 10 ug/ml after 48 hrs by Neutral Red dye; type: functional, cell-based
SK-MEL [22] = experiment: Cytotoxicity against human SK-MEL cells at 10 ug/ml after 48 hrs by Neutral Red dye; type: functional, cell-based
Candida albicans [23] = experiment: Antimicrobial activity against Candida albicans ATCC 90028 at 20 ug/ml by CLSI method; type: functional, organism-based
Aspergillus fumigatus [24] = experiment: Antimicrobial activity against Aspergillus fumigatus ATCC 90906 at 20 ug/ml by CLSI method; type: functional, organism-based
[25] = Chlorocebus sabaeus, Vero, 48 h, read-out: IC50

SMILES: CCN(CC)CCCC(C)Nc1ccnc2cc(Cl)ccc12 (centres undefined) [CHLOROQUINE]
- IC50 (Vero [1]; vero): Non-toxic

SMILES: C[C@@H]1[C@H](O)[C@@H](C)/C=C/C=C/C=C/C=C/C=C/C=C/C=C/[C@H](O[C@@H]2O[C@H](C)[C@@H](O)[C@H](N)[C@@H]2O)C[C@@H]2O[C@](O)(C[C@@H](O)C[C@@H](O)[C@H](O)CC[C@@H](O)C[C@@H](O)CC(=O)O[C@H]1C)C[C@H](O)[C@H]2C(=O)O [AMPHOTERICIN B]
- IC50 (Candida albicans [2]): 0.42 µg/mL (≈ 0.455 µM)
- MIC (Candida albicans [2]): 2.5 µg/mL (≈ 2.71 µM)
- IC50 (Aspergillus fumigatus [3]): 1.16 µg/mL (≈ 1.26 µM)
- MIC (Aspergillus fumigatus [3]): 2.5 µg/mL (≈ 2.71 µM)

SMILES: COn1cc(-c2ccccc2)c(O)c([C@@H]2O[C@H]([C@H](C)CCOC(C)=O)[C@@H](C)C[C@H]2C)c1=O
- IC50 (Vero [1]; vero): Non-toxic
- IC50 (Plasmodium falciparum [4]): Not Active
- IC50 (Plasmodium falciparum [5]): Not Active

SMILES: COc1cccc2c1C(=O)c1c(O)c3c(c(O)c1C2=O)C[C@@](O)(C(=O)CO)C[C@@H]3O[C@H]1C[C@H](N)[C@H](O)[C@H](C)O1 [DOXORUBICIN]
- IC50 (Vero [1]; [25]): > 5 µg/mL
- IC50 (KB [6]): 1.35 µg/mL (≈ 2.48 µM)
- IC50 (SK-OV-3 [7]): 1.2 µg/mL (≈ 2.21 µM)
- IC50 (BT-549 [8]): 0.8 µg/mL (≈ 1.47 µM)

SMILES: COn1cc(-c2ccccc2)c(O)c([C@@H]2O[C@H]([C@H](C)CCO)[C@@H](C)C[C@H]2C)c1=O
- IC50 (Vero [1]; vero): Non-toxic
- IC50 (Plasmodium falciparum [4]): Not Active
- IC50 (Plasmodium falciparum [5]): Not Active

SMILES: C[C@@H]1CC[C@H]2[C@@H](C)C(=O)O[C@@H]3O[C@@]4(C)CC[C@@H]1[C@]32OO4 [ARTEMISININ]
- IC50 (Vero [1]; vero): Non-toxic

SMILES: CC[C@@H](C)[C@H]1O[C@@H](c2c(O)c(-c3ccccc3)cn(O)c2=O)[C@H](C)C[C@@H]1C [SEPTORIAMYCIN A]
- IC50 (Vero [1]; [25]): 1.3 µg/mL (≈ 3.5 µM)
- IC50 (Staphylococcus aureus [9]): Not Active
- MIC (Staphylococcus aureus [9]): inactive
- selectivity ratio [10]: 6.5
- IC50 (Staphylococcus aureus [11]): Not Active
- MIC (Staphylococcus aureus [11]): inactive
- IC50 (Candida albicans [2]): 12.1 µg/mL (≈ 32.5 µM)
- IC50 (KB [6]): 5 µg/mL (≈ 13.5 µM)
- IC50 (SK-OV-3 [7]): 2.6 µg/mL (≈ 7 µM)
- IC50 (BT-549 [8]): 1.65 µg/mL (≈ 4.44 µM)
- IC50 (Aspergillus fumigatus [3]): 8.76 µg/mL (≈ 23.6 µM)
- IC50 [12]: 1.65 µg/mL (≈ 4.44 µM)
- selectivity ratio [13]: 3.9
- IC50 (SK-MEL [14]): 1.5 µg/mL (≈ 4.04 µM)
- IC50 (Staphylococcus aureus [15]): Not Active
- MIC (Staphylococcus aureus [15]): inactive

SMILES: CC[C@@H](C)[C@H]1O[C@@H](c2c(O)c(-c3ccccc3)cn(OC)c2=O)[C@H](C)C[C@@H]1C
- IC50 (Vero [1]; vero): Non-toxic
- IC50 [16]: Not Active
- IC50 (Vero [17]): Not Active
- MIC (Staphylococcus aureus [11]; Staphylococcus aureus, ATCC 29213): 5 µg/mL (≈ 13 µM)
- IC50 (Staphylococcus aureus [11]; Staphylococcus aureus, ATCC 29213, read-out: IC50): 2.79 µg/mL (≈ 7.24 µM)
- IC50 (BT-549 [18]): Not Active
- IC50 (Plasmodium falciparum [4]): Not Active
- IC50 (SK-OV-3 [19]): Not Active
- IC50 (Staphylococcus aureus [20]): 2.99 µg/mL (≈ 7.76 µM)
- MIC (Staphylococcus aureus [20]): 5 µg/mL (≈ 13 µM)
- IC50 (KB [21]): Not Active
- IC50 (SK-MEL [22]): Not Active
- IC50 (Candida albicans [23]): Not Active
- MIC (Candida albicans [23]): inactive
- IC50 (Aspergillus fumigatus [24]): Not Active
- MIC (Aspergillus fumigatus [24]): inactive
- IC50 (Plasmodium falciparum [5]): Not Active
